# Results: ChEMBL document CHEMBL1201861, “Genomics of Drug Sensitity in Cancer screening data, Wellcome Trust Sanger Institute”
# pIC50: −log10 of the molar value.
# Key:
# Assay in all cases: cells
# Type in all cases: functional, cell-based, Homo sapiens
# CTB-1 = tested on: CTB-1
# Description: SANGER: Inhibition of human CTB-1 cell growth in a cell viability assay.
# D-336MG = tested on: D-336MG
# Description: SANGER: Inhibition of human D-336MG cell growth in a cell viability assay.
# D-392MG = tested on: D-392MG
# FTC-133 = tested on: FTC-133
# G-401 = tested on: G-401
# Description: SANGER: Inhibition of human G-401 cell growth in a cell viability assay.
# GAK = tested on: GAK;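 also: cell growth inhibition read out by a cell viability assay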
# Description: SANGER: Inhibition of human GAK cell growth in a cell viability assay.
# GI-ME-N = tested on: GI-ME-N;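 also: growth inhibition of human GI-ME-N cells, read out with a cell viability assay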
# Description: SANGER: Inhibition of human GI-ME-N cell growth in a cell viability assay.
# HCC1395 = tested on: HCC1395;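 also: growth inhibition of HCC1395 cells, read out by a cell viability assay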
# Description: SANGER: Inhibition of human HCC1395 cell growth in a cell viability assay.
# HO-1-N-1 = tested on: HO-1-N-1;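 also: growth inhibition of human HO-1-N-1 cells, read out with a cell viability assay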
# Description: SANGER: Inhibition of human HO-1-N-1 cell growth in a cell viability assay.
# HOP-62 = tested on: HOP-62;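 also: cell growth inhibition determined with a viability assay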
# Description: SANGER: Inhibition of human HOP-62 cell growth in a cell viability assay.
# Huh-7 = tested on: Huh-7;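 also: HuH-7 cell growth inhibition, read out with a cell viability assay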
# Description: SANGER: Inhibition of human HuH-7 cell growth in a cell viability assay.
# KARPAS-299 = tested on: KARPAS-299
# Description: SANGER: Inhibition of human KARPAS-299 cell growth in a cell viability assay.
# LN-405 = tested on: LN-405
# Description: SANGER: Inhibition of human LN-405 cell growth in a cell viability assay.
# LOX IMVI = tested on: LOX IMVI
# Description: SANGER: Inhibition of human LOXIMVI cell growth in a cell viability assay.
# Lu-65 = tested on: Lu-65;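 also: growth inhibition of Lu-65 cancer cells, read out by a cell viability assay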
# Description: SANGER: Inhibition of human LU-65 cell growth in a cell viability assay.
# MDA-MB-453 = tested on: MDA-MB-453
# Description: SANGER: Inhibition of human MDA-MB-453 cell growth in a cell viability assay.
# MKN-45 = tested on: MKN-45;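 also: growth inhibition of human MKN-45 cells, measured with a cell viability assay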
# Description: SANGER: Inhibition of human MKN45 cell growth in a cell viability assay.
# MZ2-MEL = tested on: MZ2-MEL;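 also: growth inhibition of MZ2-MEL cells read out with a cell viability assay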
# Description: SANGER: Inhibition of human MZ2-MEL cell growth in a cell viability assay.
# NB13 = tested on: NB13;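 also: cell viability readout measuring growth inhibition of human NB13 cells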
# Description: SANGER: Inhibition of human NB13 cell growth in a cell viability assay.
# NCI-H1304 = tested on: NCI-H1304;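 also: growth inhibition of the cancer cell line, measured in a cell viability assay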
# Description: SANGER: Inhibition of human NCI-H1304 cell growth in a cell viability assay.
# NCI-H1437 = tested on: NCI-H1437;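 also: growth inhibition of human NCI-H1437 cells, read out by a cell viability assay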
# Description: SANGER: Inhibition of human NCI-H1437 cell growth in a cell viability assay.
# NCI-H1581 = tested on: NCI-H1581;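 also: cell growth inhibition read out by a viability assay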
# Description: SANGER: Inhibition of human NCI-H1581 cell growth in a cell viability assay.
# NCI-H2087 = tested on: NCI-H2087;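 also: growth inhibition determined with a cell viability readout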
# Description: SANGER: Inhibition of human NCI-H2087 cell growth in a cell viability assay.
# NCI-H2347 = tested on: NCI-H2347;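 also: growth inhibition of the cell line, read out with a cell viability assay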
# Description: SANGER: Inhibition of human NCI-H2347 cell growth in a cell viability assay.
# NCI-H358 = tested on: NCI-H358;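 also: growth inhibition of NCI-H358 human cells, read out with a cell viability assay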
# Description: SANGER: Inhibition of human NCI-H358 cell growth in a cell viability assay.
# OCI-AML2 = tested on: OCI-AML2;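 also: growth inhibition of OCI-AML2 cells, read out with a cell viability assay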
# Description: SANGER: Inhibition of human OCI-AML2 cell growth in a cell viability assay.
# PC-14 = tested on: PC-14;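 also: cell viability assay measuring inhibition of PC-14 cell growth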
# Description: SANGER: Inhibition of human PC-14 cell growth in a cell viability assay.
# RPMI-2650 = tested on: RPMI-2650
# Description: SANGER: Inhibition of human RPMI-2650 cell growth in a cell viability assay.
# SBC-1 = tested on: SBC-1;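 also: cell viability assay measuring growth inhibition of the SBC-1 cell line, IC50 being the concentration that halves growth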
# Description: SANGER: Inhibition of human SBC-1 cell growth in a cell viability assay.
# SKG-IIIa = tested on: SKG-IIIa;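 also: cell growth inhibition, read out with a cell viability assay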
# Description: SANGER: Inhibition of human SKG-IIIa cell growth in a cell viability assay.
# T98G = tested on: T98G;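 also: growth inhibition of T98G cells, read out by a cell viability assay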
# Description: SANGER: Inhibition of human T98G cell growth in a cell viability assay.
# TE-1 = tested on: TE-1;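 also: growth inhibition of the human TE-1 cell line, read out with a cell viability assay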
# Description: SANGER: Inhibition of human TE-1 cell growth in a cell viability assay.
# 8505C = tested on: 8505C
# Description: SANGER: Inhibition of human 8505C cell growth in a cell viability assay.
# A 172 = tested on: A 172;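 also: growth inhibition of A172 cells, measured with a cell viability readout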
# Description: SANGER: Inhibition of human A172 cell growth in a cell viability assay.
# ASPC1 = tested on: ASPC1;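 also: growth inhibition of AsPC-1 cells, read out with a cell viability assay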
# Description: SANGER: Inhibition of human AsPC-1 cell growth in a cell viability assay.
# BXPC-3 = tested on: BXPC-3;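 also: growth inhibition of human BxPC-3 cells, read out by a cell viability assay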
# Description: SANGER: Inhibition of human BxPC-3 cell growth in a cell viability assay.
# CAL-33 = tested on: CAL-33;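 also: growth inhibition of CAL-33 cells, read out with a cell viability assay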
# Description: SANGER: Inhibition of human CAL-33 cell growth in a cell viability assay.
# UMUC3 = tested on: UMUC3;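 also: growth inhibition of human UM-UC-3 cells, read out with a cell viability assay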
# Description: SANGER: Inhibition of human UM-UC-3 cell growth in a cell viability assay.
# CAPAN-1 = tested on: CAPAN-1;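 also: growth suppression of CAPAN-1 cells, read out by a cell viability assay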
# Description: SANGER: Inhibition of human CAPAN-1 cell growth in a cell viability assay.
# KU812 cell line = settings: ku812;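 also: growth inhibition of KU812 cells, read out with a cell viability assay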
# Description: SANGER: Inhibition of human KU812 cell growth in a cell viability assay.
# KY821 = settings: ky821;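 also: growth inhibition of human KY821 cells, read out by a cell viability assay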
# Description: SANGER: Inhibition of human KY821 cell growth in a cell viability assay.
molecule,measurement,setting,value
CS(=O)(=O)c1ccc(C(=O)Nc2ccc(Cl)c(-c3ccccn3)c2)c(Cl)c1 [VISMODEGIB],pIC50,"CTB-1; Homo sapiens, CTB-1",< 5.00
same,pIC50,"D-336MG; Homo sapiens, D-336MG",< 5.00
same,pIC50,"D-392MG; Homo sapiens, D-392MG",< 5.00
same,pIC50,"FTC-133; Homo sapiens, FTC-133",< 5.00
same,pIC50,"G-401; Homo sapiens, G-401",< 5.00
same,pIC50,"GAK; Homo sapiens, GAK",< 5.00
same,pIC50,"GI-ME-N; Homo sapiens, GI-ME-N",< 5.00
same,pIC50,"HCC1395; Homo sapiens, HCC1395",< 5.00
same,pIC50,"HO-1-N-1; Homo sapiens, HO-1-N-1",< 5.00
same,pIC50,"HOP-62; Homo sapiens, HOP-62",< 5.00
same,pIC50,"Huh-7; Homo sapiens, Huh-7",< 5.00
same,pIC50,"KARPAS-299; Homo sapiens, KARPAS-299",< 5.00
same,pIC50,"LN-405; Homo sapiens, LN-405",< 5.00
same,pIC50,"LOX IMVI; Homo sapiens, LOX IMVI",< 5.00
same,pIC50,"Lu-65; Homo sapiens, Lu-65",< 5.00
same,pIC50,"MDA-MB-453; Homo sapiens, MDA-MB-453",< 5.00
same,pIC50,"MKN-45; Homo sapiens, MKN-45",< 5.00
same,pIC50,"MZ2-MEL; Homo sapiens, MZ2-MEL",< 5.00
same,pIC50,"NB13; Homo sapiens, NB13",< 5.00
same,pIC50,"NCI-H1304; Homo sapiens, NCI-H1304",< 5.00
same,pIC50,"NCI-H1437; Homo sapiens, NCI-H1437",< 5.00
same,pIC50,"NCI-H1581; Homo sapiens, NCI-H1581",< 5.00
same,pIC50,"NCI-H2087; Homo sapiens, NCI-H2087",< 5.00
same,pIC50,"NCI-H2347; Homo sapiens, NCI-H2347",< 5.00
same,pIC50,"NCI-H358; Homo sapiens, NCI-H358",< 5.00
same,pIC50,"OCI-AML2; Homo sapiens, OCI-AML2",< 5.00
same,pIC50,"PC-14; Homo sapiens, PC-14",< 5.00
same,pIC50,"RPMI-2650; Homo sapiens, RPMI-2650",< 5.00
same,pIC50,"SBC-1; Homo sapiens, SBC-1",< 5.00
same,pIC50,"SKG-IIIa; Homo sapiens, SKG-IIIa",< 5.00
same,pIC50,"T98G; Homo sapiens, T98G",< 5.00
same,pIC50,"TE-1; Homo sapiens, TE-1",< 5.00
same,pIC50,"8505C; Homo sapiens, 8505C",< 5.00
same,pIC50,"A 172; Homo sapiens, A 172",< 5.00
same,pIC50,"ASPC1; Homo sapiens, ASPC1",< 5.00
same,pIC50,"BXPC-3; Homo sapiens, BXPC-3",< 5.00
same,pIC50,"CAL-33; Homo sapiens, CAL-33",< 5.00
same,pIC50,"UMUC3; Homo sapiens, UMUC3",< 5.00
same,pIC50,"CAPAN-1; Homo sapiens, CAPAN-1",< 5.00
CISPLATIN,pIC50,CTB-1; ctb-1,5.64
same,pIC50,D-336MG; d-336mg,4.47
same,pIC50,D-392MG; d-392mg,4.92
same,pIC50,FTC-133; ftc-133,5.32
same,pIC50,G-401; g-401,5.14
same,pIC50,GAK; gak,3.31
same,pIC50,GI-ME-N; gi-me-n,4.96
same,pIC50,HCC1395; hcc1395,3.85
same,pIC50,HO-1-N-1; ho-1-n-1,4.40
same,pIC50,HOP-62; hop-62,3.18
same,pIC50,Huh-7; huh-7,4.39
same,pIC50,KARPAS-299; karpas-299,3.77
same,pIC50,KU812 cell line,4.31
same,pIC50,KY821,4.10
same,pIC50,LN-405; ln-405,4.81
same,pIC50,LOX IMVI; lox imvi,4.88
same,pIC50,Lu-65; lu-65,3.25
same,pIC50,MDA-MB-453; mda-mb-453,4.59
same,pIC50,MKN-45; mkn-45,4.54
same,pIC50,MZ2-MEL; mz2-mel,4.87
same,pIC50,NB13; nb13,4.40
same,pIC50,NCI-H1304; nci-h1304,5.01
same,pIC50,NCI-H1437; nci-h1437,4.07
same,pIC50,NCI-H1581; nci-h1581,4.92
same,pIC50,NCI-H2087; nci-h2087,4.84
same,pIC50,NCI-H2347; nci-h2347,3.66
same,pIC50,NCI-H358; nci-h358,3.71
same,pIC50,OCI-AML2; oci-aml2,4.81
same,pIC50,PC-14; pc-14,5.24
same,pIC50,RPMI-2650; rpmi-2650,4.12
same,pIC50,SBC-1; sbc-1,3.85
same,pIC50,SKG-IIIa; skg-iiia,5.15
same,pIC50,T98G; t98g,3.85
same,pIC50,TE-1; te-1,4.41
same,pIC50,8505C; 8505c,4.46
same,pIC50,A 172; a 172,4.10
same,pIC50,ASPC1; aspc1,4.68
same,pIC50,BXPC-3; bxpc-3,4.65
same,pIC50,CAL-33; cal-33,4.38
same,pIC50,UMUC3; umuc3,5.41
same,pIC50,CAPAN-1; capan-1,4.61
CC(C)c1ccccc1Cc1cc(C(=O)Nc2ccc(S(=O)(=O)c3ccccc3C(C)(C)C)cc2)c(O)c(O)c1O,pIC50,"D-336MG; Homo sapiens, D-336MG",6.02
same,pIC50,"D-392MG; Homo sapiens, D-392MG",5.85
same,pIC50,"FTC-133; Homo sapiens, FTC-133",6.22
same,pIC50,"G-401; Homo sapiens, G-401",6.34
same,pIC50,"GAK; Homo sapiens, GAK",5.69
same,pIC50,"GI-ME-N; Homo sapiens, GI-ME-N",6.39
same,pIC50,"HCC1395; Homo sapiens, HCC1395",5.15
same,pIC50,"HO-1-N-1; Homo sapiens, HO-1-N-1",5.85
same,pIC50,"HOP-62; Homo sapiens, HOP-62",6.44
same,pIC50,"Huh-7; Homo sapiens, Huh-7",7.48
same,pIC50,"LN-405; Homo sapiens, LN-405",5.80
same,pIC50,"LOX IMVI; Homo sapiens, LOX IMVI",6.57
same,pIC50,"MDA-MB-453; Homo sapiens, MDA-MB-453",6.82
same,pIC50,"MKN-45; Homo sapiens, MKN-45",6.47
same,pIC50,"MZ2-MEL; Homo sapiens, MZ2-MEL",6.67
same,pIC50,"NB13; Homo sapiens, NB13",6.80
same,pIC50,"NCI-H1437; Homo sapiens, NCI-H1437",6.27
same,pIC50,"NCI-H1581; Homo sapiens, NCI-H1581",7.17
same,pIC50,"NCI-H2087; Homo sapiens, NCI-H2087",6.24
same,pIC50,"NCI-H2347; Homo sapiens, NCI-H2347",5.91
same,pIC50,"NCI-H358; Homo sapiens, NCI-H358",5.83
same,pIC50,"PC-14; Homo sapiens, PC-14",6.48
same,pIC50,"RPMI-2650; Homo sapiens, RPMI-2650",6.62
same,pIC50,"SKG-IIIa; Homo sapiens, SKG-IIIa",6.24
same,pIC50,"T98G; Homo sapiens, T98G",6.22
same,pIC50,"TE-1; Homo sapiens, TE-1",6.02
same,pIC50,"8505C; Homo sapiens, 8505C",6.66
same,pIC50,"A 172; Homo sapiens, A 172",6.10
same,pIC50,"ASPC1; Homo sapiens, ASPC1",6.01
same,pIC50,"BXPC-3; Homo sapiens, BXPC-3",5.61
same,pIC50,"CAL-33; Homo sapiens, CAL-33",6.09
same,pIC50,"UMUC3; Homo sapiens, UMUC3",6.79
same,pIC50,"CAPAN-1; Homo sapiens, CAPAN-1",4.96
